The source of these data is patent publication US12115218B2 (priority 2018, dated 2024).

For this assay, the system named is Inactivated porcine circovirus type 2 vaccine (SH strain) antigen. Set-up: species or system mice. The note with it: mouse, in vivo.

Structures can show the parent of a compound that is named as a salt.

For `c1ccc([C@H]2CN3CCSC3=N2)cc1` [levamisole aqueous solution, levamisole hydrochloride], the “Antibody titers in mice” value is recorded as “no adjuvant synergistic effect was produced”.
On to polyinosinic acid-polycytidylic acid, for which the “Antibody titers in mice” value is on record as “no adjuvant synergistic effect was produced”.
